Columns and labels:
[1] = tested on: Homo sapiens; experiment: In vivo inhibition of B-RAF in naive patient relative to control; type: functional
[2] = tested on: Homo sapiens; experiment: In vivo inhibition of B-RAF in inhibitor-pretreated patient relative to control; type: functional
[3] = molecular target: Serine/threonine-protein kinase B-raf (Homo sapiens) (UniProt P15056); experiment: Binding affinity to B-RAF (unknown origin) assessed as dissociation half life
[4] = tested on: Homo sapiens; experiment: Toxicity in patient administered daily; type: organism-based; details: in vivo
[5] = Plasma half life in po dosed Sprague-Dawley rat; type: ADME, organism-based
[6] = Effective half life in patient; type: ADME, organism-based; details: human, in vivo; read-out: t1/2eff
[7] = molecular target: T1, Mitogen-activated protein kinase 3 (Homo sapiens, UniProt P27361); experiment: Inhibition of ERK1 (unknown origin) after 45 mins by IMAP assay
T1 sequence (P27361 whole entry): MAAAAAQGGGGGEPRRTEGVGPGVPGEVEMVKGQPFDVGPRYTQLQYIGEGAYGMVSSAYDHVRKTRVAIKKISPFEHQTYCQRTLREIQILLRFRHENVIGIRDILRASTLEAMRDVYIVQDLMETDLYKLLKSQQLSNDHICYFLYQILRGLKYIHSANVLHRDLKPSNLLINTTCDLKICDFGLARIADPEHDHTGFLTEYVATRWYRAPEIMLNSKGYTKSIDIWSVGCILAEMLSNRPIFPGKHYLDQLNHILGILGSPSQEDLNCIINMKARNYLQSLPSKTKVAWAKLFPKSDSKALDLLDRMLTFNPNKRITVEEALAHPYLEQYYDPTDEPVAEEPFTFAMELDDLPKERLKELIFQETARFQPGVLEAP

[8] = molecular target: T1, Mitogen-activated protein kinase 3; experiment: Competitive inhibition of ERK1 (unknown origin) in presence of ATP

Serine/threonine-protein kinase B-raf (Homo sapiens), sequence (P15056 whole entry): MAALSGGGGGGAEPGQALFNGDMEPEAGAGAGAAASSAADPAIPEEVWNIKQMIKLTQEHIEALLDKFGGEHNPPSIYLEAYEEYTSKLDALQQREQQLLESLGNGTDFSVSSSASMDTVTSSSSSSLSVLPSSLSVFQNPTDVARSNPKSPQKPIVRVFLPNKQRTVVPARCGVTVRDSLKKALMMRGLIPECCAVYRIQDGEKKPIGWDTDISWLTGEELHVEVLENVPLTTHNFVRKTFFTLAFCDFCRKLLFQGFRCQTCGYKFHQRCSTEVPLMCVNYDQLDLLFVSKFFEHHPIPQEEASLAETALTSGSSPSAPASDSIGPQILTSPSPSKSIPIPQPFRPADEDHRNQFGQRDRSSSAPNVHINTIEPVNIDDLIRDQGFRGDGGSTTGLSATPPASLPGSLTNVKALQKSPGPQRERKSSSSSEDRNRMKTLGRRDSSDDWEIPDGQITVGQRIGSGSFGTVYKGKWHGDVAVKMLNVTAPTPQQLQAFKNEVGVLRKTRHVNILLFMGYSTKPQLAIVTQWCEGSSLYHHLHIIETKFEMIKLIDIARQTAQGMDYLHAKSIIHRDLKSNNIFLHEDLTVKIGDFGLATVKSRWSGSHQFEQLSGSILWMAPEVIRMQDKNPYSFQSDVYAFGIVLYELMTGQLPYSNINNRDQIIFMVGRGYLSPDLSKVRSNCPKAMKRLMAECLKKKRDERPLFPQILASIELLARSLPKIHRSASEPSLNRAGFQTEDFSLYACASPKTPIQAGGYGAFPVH

For `Cn1cnc2c(F)c(Nc3ccc(Br)cc3F)c(C(=O)NOCCO)cc21` [BINIMETINIB], the “inhibition (INH)” value [1] was 88% and the “inhibition (INH)” value [2] was 18%.
With `COC(=O)N[C@@H](C)CNc1nccc(-c2cn(C(C)C)nc2-c2cc(Cl)cc(NS(C)(=O)=O)c2F)n1` [ENCORAFENIB] the T1/2 [3] was greater than 24 h, the MTD [4] was 600 mg and the “inhibition (INH)” value [1] was 58%. The “inhibition (INH)” value [2] was 11%.
In the case of `CC(=O)Nc1cccc(-n2c(=O)n(C3CC3)c(=O)c3c(Nc4ccc(I)cc4F)n(C)c(=O)c(C)c32)c1` [TRAMETINIB], the half-life [5] is reported as greater than 30 h and the half-life [6] is reported as greater than 40 h.
With `O=C(Nc1ccc2[nH]nc(-c3ccncc3)c2c1)[C@@H]1CCN(CC(=O)N2CCN(c3ccc(-c4ncccn4)cc3)CC2)C1` the IC50 [7] was 4 nM.
In the case of `CC(C)Nc1cc(-c2c[nH]c(C(=O)N[C@H](CO)c3cccc(Cl)c3)c2)c(Cl)cn1`, the INH [8] is reported as 300 pM.
